Where two headings read alike, the source gives them in different places.
What was measured:
[1] = test system: Influenza A (H1N1) virus FM1 strain; assay: Mouse pneumonia model infected with influenza A (H1N1) virus FM1 strain (lung index); type: in vivo, ICR mice; settings: for inhibition in vivo at 20 mg/kg / inhibition in vivo at 40 mg/kg / inhibition in vivo at 25 mg/kg / inhibition in vivo at 50 mg/kg: Influenza A virus, H1N1, po, 96 h, read-out: inhibition rate (%)
Description: ICR mice were taken and randomly divided into: normal control group, model control group, ribavirin control group, compound 4, compound F1, compound F2, and compound F3 according to their weight class, and each drug was given in two dosage groups (10 mice in each group). Except for the normal control group, mice were slightly anesthetized with ether and infected with 15 LD50 H1N1 influenza virus liquid FM1 strain by nasal drops (30 μl per animal). The administration was started on the day of infection at 0.2 ml/10 g by gavage each time once a day for 4 days, and the normal control and model control groups were gavaged with distilled water under the same conditions. The mice were weighed and dissected on Day 5, and the lung was weighed to calculate lung index and lung index inhibition. The results were statistically processed using t-test for comparison between groups.
ICR mice were taken and randomly divided by weight class: normal control group, model control group, oseltamivir control group, compound 4, compound F4, compound F5, compound 5, and compound 7 according to their weight class, and each drug was given in two dosage groups (10 mice in each group). Except for the normal control group, mice were slightly anesthetized with ether and infected with 15 LD50 H1N1 influenza virus liquid (FM1/PR8 strain) by nasal drops (30 μl per each animal). The administration was started on the day of infection at 0.2 ml/10 g by gavage each time once a day for 4 days, and the normal control and model control groups were gavaged with distilled water under the same conditions. The mice were weighed and dissected on Day 5, and lung was weighed to calculate lung index and lung index inhibition. The results were statistically processed using t-test for comparison between groups.
ICR mice were taken and randomly divided into 9 groups according to the body weight: a normal control group, model control group, oseltamivir control group, and two dosage groups of Compound 9, Compound 12 and Compound 2, 10 mice in each group. Except the normal control group, mice were slightly anesthetized with ether and infected with 15 LD50 H1N1/PR8 influenza virus liquid by nasal drops at 30 μl per mouse. The administration was started on the day of infection, at 0.2 ml/10 g each time by gavage once a day for 4 days, and the normal control and model control groups were gavaged with distilled water under the same conditions. The mice were weighed and dissected on Day 5, and lungs were weighed to calculate lung index and lung index inhibition. The results were statistically processed using t-test for comparison between groups.

[2] = test system: Human Coronavirus 229E (HCoV-229E); assay: animal or person; type: in vivo; settings: for inhibition in vivo at 7.5 mg/kg/day / inhibition in vivo at 15 mg/kg/day / inhibition in vivo at 30 mg/kg/day / inhibition in vivo at 40 mg/kg/day / inhibition in vivo at 50 mg/kg/day: Human coronavirus 229E, in Mus musculus, po, 96 h, read-out: inhibition rate (%)
[3] = Table 2 (Example 14), 20 mg/kg gavage once a day for 4 days
[4] = Table 2 (Example 14), 40 mg/kg gavage once a day for 4 days
[5] = Table 5 (Example 16), 7.5 mg/kg/d gavage for 4 days
[6] = Table 5 (Example 16), 15 mg/kg/d gavage for 4 days
[7] = Table 5 (Example 16), 30 mg/kg/d gavage for 4 days
[8] = Table 1 (Example 13), 25 mg/kg gavage once a day for 4 days
[9] = Table 1 (Example 13), 50 mg/kg gavage once a day for 4 days
[10] = Table 4 (Example 15), 40 mg/kg/d gavage for 4 days
[11] = Table 4 (Example 15), 50 mg/kg/d gavage for 4 days
[12] = Table 10 (Example 23), 7.5 mg/kg/d gavage for 4 days

Row | SMILES | inhibition in vivo at 20 mg/kg [1, 3] [%] | inhibition in vivo at 40 mg/kg [1, 4] [%] | lung index [1, 3] | lung index [1, 4] | inhibition in vivo at 7.5 mg/kg/day [2, 5] [%] | inhibition in vivo at 15 mg/kg/day [2, 6] [%] | inhibition in vivo at 30 mg/kg/day [2, 7] [%] | lung index [2, 5] | lung index [2, 6] | lung index [2, 7] | inhibition in vivo at 25 mg/kg [1, 8] [%] | inhibition in vivo at 50 mg/kg [1, 9] [%] | lung index [1, 8] | lung index [1, 9] | inhibition in vivo at 40 mg/kg/day [2, 10] [%] | inhibition in vivo at 50 mg/kg/day [2, 11] [%] | lung index [2, 10] | lung index [2, 11] | inhibition in vivo at 7.5 mg/kg/day [2, 12] [%] | lung index [2, 12]
1 | COCCOc1ccc2c(=O)c(-c3ccccc3)coc2c1 [Compound F4, reference compound] | -9.25 | -29.3 | 1.14 ± 0.12 | 1.22 ± 0.13 | -86 | -64 | 37.2 | 0.86 ± 0.07 g lung weight × 100/g body weight | 0.84 ± 0.07 g lung weight × 100/g body weight | 0.75 ± 0.13 g lung weight × 100/g body weight |  |  |  |  |  |  |  |  |  | 
2 | COc1ccc(-c2coc3cc(O[C@@H]4OC(CO)[C@@H](O)C(O)C4O)ccc3c2=O)cc1O (stereo partly drawn) [Compound F2, reference compound] |  |  |  |  |  |  |  |  |  |  | 17.1 | 19.1 | 1.13 ± 0.18 | 1.12 ± 0.17 | 1.45 | 10.6 | 0.84 ± 0.05 g lung weight × 100/g body weight | 0.82 ± 0.06 g lung weight × 100/g body weight |  | 
3 | COc1ccc(-c2coc3cc(O)ccc3c2=O)cc1O [Compound F3, reference compound] |  |  |  |  |  |  |  |  |  |  | 4.07 | -18.7 | 1.19 ± 0.31 | 1.31 ± 0.22 | 7.71 | 1.81 | 0.83 ± 0.09 g lung weight × 100/g body weight | 0.84 ± 0.06 g lung weight × 100/g body weight |  | 
4 | CC1(NCCOc2ccc3c(=O)c(-c4ccccc4)coc3c2)CC1 [Compound 5] | -25.1 | 8.44 | 1.20 ± 0.16 | 1.07 ± 0.21 | 22.7 | -17 | -7 | 0.76 ± 0.08 g lung weight × 100/g body weight | 0.80 ± 0.10 g lung weight × 100/g body weight | 0.79 ± 0.08 g lung weight × 100/g body weight |  |  |  |  |  |  |  |  |  | 
5 | O=c1c(-c2ccccc2)coc2cc(O)ccc12 [Compound F1, reference compound] |  |  |  |  |  |  |  |  |  |  | 11.1 | 30 | 1.17 ± 0.09 | 1.06 ± 0.13 | 15.9 | 20.4 | 0.81 ± 0.06 g lung weight × 100/g body weight | 0.80 ± 0.05 g lung weight × 100/g body weight | 27.2 | 0.85 ± 0.07 g lung weight × 100/g body weight
6 | CC(=O)NCCOc1ccc2c(=O)c(-c3ccccc3)coc2c1 [Compound F5, reference compound] | -31.3 | 0.35 | 1.22 ± 0.11 | 1.10 ± 0.24 | -41 | -72 | 17 | 0.82 ± 0.08 g lung weight × 100/g body weight | 0.85 ± 0.08 g lung weight × 100/g body weight | 0.77 ± 0.11 g lung weight × 100/g body weight |  |  |  |  |  |  |  |  |  | 
7 | O=c1c(-c2ccccc2)coc2cc(OCCNC3CCCCC3)ccc12 [Compound 7] | 21 | 30.2 | 1.02 ± 0.12 | 0.98 ± 0.18 | -17 | 41.6 | 15.8 | 0.80 ± 0.09 g lung weight × 100/g body weight | 0.74 ± 0.06 g lung weight × 100/g body weight | 0.76 ± 0.07 g lung weight × 100/g body weight |  |  |  |  |  |  |  |  |  | 

Source: US20250154121A1, “CYCLIC(ALKYL)(AMINO)ALKOXY-SUBSTITUTED ARYL-PYRONE COMPOUND AND USE THEREOF” (priority 2022, published 2025)
